This experiment has as its target T1, human PPARγ ligand-binding domain (Homo sapiens, UniProt P37231).
T1 construct: expressed in transfected cells; host or cells: CV-1 cells (African green monkey kidney)
T1 sequence (P37231 204-505): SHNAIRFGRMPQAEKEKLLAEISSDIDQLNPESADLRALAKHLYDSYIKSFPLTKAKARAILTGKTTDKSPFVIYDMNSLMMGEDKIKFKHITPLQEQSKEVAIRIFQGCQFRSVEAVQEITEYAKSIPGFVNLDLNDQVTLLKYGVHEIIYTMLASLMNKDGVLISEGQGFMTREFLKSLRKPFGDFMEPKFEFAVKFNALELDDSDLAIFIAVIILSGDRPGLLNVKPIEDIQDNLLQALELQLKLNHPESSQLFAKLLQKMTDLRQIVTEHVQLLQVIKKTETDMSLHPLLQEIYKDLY
Kind of experiment: GAL4-hPPARγ luciferase reporter assay (PPARγ ligand activity) in transfected CV-1 cells. The format is cell-based. As to conditions: for PPARγ ligand activity: 24 hour incubation, CV-1 cells, luciferase activity relative to non-treatment control (DMSO) = 100, average ± standard error, n=4. The procedure: First, CV-1 cells (cultured cells derived from kidneys of male African green monkeys) were implanted on 24-well culture plates so as to be […] and cultured at 37° C. in 5% CO2 for 24 hours. As a medium, DMEM (Dulbecco's Modified Eagle Medium; manufactured by GIBCO) containing 10% FBS (fetal bovine serum) and a 10 mg/mL penicillin streptomycin solution was used. Next, using Lipofectamine system (manufactured by Invitrogen Corporation), pM-hPPARγ and p4×UASg-tk-luc were transfected into the cultured CV-1 cells. The above-noted pM-hPPARγ was a vector for expressing fused protein containing residues 1 - 147 of GAL4 binding domain and residues 204 - 505 of human PPARγ ligand-binding domain, whereas the above-noted p4×UASg-tk-luc was a reporter plasmid containing four copies of an upstream activating sequence (UAS) for GAL4 binding domain and a thymidine kinase gene promoter in front of a luciferase gene. After the transfection, the cells were cultured for about 24 hours, and then, the media for the cells were changed to media containing β-cryptoxantine at respective concentrations (0.1, 1.0, 10 and 70 μM) or media for non-treatment control, followed by an additional 24 hour incubation. The above-noted media containing β-cryptoxantine were prepared by adding β-cryptoxantine dissolved in dimethyl sulfoxide (DMSO) to the media, whereas the media for non-treatment control were prepared by adding only DMSO to the media. After the incubation, the cells were lysed for luciferase activation assay using a Dual-Luciferase Reporter Gene Assay system (manufactured by Promega Corporation) (measurement group).
Similarly to the measurement group, as a control group, the luciferase activation assay was performed using pM (a vector containing residues 1 - 147 of GAL4 binding domain and not containing residues 204-505 of PPARγ ligand-binding domain in pM-hPPARγ) instead of pM-hPPARγ. For each sample, the ratio between average light-emission intensities of the measurement group and the control group (n=4) (measurement group/control group) was calculated, and a luciferase activity relative to the non-treatment control was determined as the PPARγ ligand-binding activity of the sample.

The structures appear in SMILES notation.

Regarding `CC1=C(/C=C/C(C)=C/C=C/C(C)=C/C=C/C=C(C)/C=C/C=C(C)/C=C/C2=C(C)C[C@@H](O)CC2(C)C)C(C)(C)CCC1` [β-cryptoxantine], the “activity of PPARγ (result in words)” value (0.1 to 70 μM, activity increased in keeping with the concentration) was “improved the activity of PPARγ”. The PPARγ ligand activity is listed as 119 ± 18.4 (addition concentration 0.1 μM), 159 ± 25.0 (addition concentration 1.0 μM), 166 ± 21.7 (addition concentration 10 μM) and 246 ± 22.5 (addition concentration 70 μM).

For the origin of these results see US20070218147A1, “Peroxisome Proliferator-Activated Receptor (Ppar) Activator, and Drugs, Supplements, Functional Foods and Food Additives Using the Same” (ARKRAY, INC., priority 2004, published 2007).
